IC50 data for four compounds are collected here from ChEMBL document CHEMBL4477252, “Optimization of microtubule affinity regulating kinase (MARK) inhibitors with improved physical properties” (Bioorg Med Chem Lett, 2016).

The IC50 is the point on the concentration scale where inhibition reaches its midpoint.

For one assay, the target named is T1, Ephrin type-B receptor 2 (Homo sapiens, UniProt P29323).
T1 sequence (P29323 whole entry): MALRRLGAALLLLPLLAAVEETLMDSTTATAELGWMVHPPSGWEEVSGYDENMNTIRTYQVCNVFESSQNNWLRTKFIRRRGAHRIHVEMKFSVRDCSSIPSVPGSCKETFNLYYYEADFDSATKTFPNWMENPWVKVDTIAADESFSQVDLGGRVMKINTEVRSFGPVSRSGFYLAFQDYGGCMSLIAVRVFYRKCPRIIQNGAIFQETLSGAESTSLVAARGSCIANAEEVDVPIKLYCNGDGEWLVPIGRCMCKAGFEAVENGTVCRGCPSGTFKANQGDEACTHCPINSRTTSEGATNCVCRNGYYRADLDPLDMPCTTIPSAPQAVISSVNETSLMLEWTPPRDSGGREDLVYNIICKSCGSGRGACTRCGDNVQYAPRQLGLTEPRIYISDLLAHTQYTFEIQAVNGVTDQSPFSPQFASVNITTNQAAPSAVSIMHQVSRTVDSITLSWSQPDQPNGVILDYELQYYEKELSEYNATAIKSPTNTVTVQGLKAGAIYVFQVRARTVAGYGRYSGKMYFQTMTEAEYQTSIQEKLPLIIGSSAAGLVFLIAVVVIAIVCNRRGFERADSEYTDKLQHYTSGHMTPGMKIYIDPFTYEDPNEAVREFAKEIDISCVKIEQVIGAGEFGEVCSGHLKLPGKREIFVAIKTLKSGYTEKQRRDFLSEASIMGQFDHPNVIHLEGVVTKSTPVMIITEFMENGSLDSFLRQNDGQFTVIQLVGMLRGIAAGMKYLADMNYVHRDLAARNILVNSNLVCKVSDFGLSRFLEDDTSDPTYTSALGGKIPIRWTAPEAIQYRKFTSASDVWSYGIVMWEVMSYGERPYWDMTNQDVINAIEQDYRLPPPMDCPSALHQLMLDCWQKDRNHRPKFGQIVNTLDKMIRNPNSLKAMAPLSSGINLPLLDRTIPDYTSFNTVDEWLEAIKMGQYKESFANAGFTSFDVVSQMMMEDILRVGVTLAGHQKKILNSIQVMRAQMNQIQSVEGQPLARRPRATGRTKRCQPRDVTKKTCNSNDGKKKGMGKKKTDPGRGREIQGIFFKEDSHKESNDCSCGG
As to the kind of experiment: Inhibition of recombinant human GST-tagged cytoplasmic EPHB2 expressed in baculovirus expression system by Z'-LYTE assay.

The target in assay [1] is T2, NUAK family SNF1-like kinase 1 (Homo sapiens, UniProt O60285).
T2 sequence (O60285 whole entry): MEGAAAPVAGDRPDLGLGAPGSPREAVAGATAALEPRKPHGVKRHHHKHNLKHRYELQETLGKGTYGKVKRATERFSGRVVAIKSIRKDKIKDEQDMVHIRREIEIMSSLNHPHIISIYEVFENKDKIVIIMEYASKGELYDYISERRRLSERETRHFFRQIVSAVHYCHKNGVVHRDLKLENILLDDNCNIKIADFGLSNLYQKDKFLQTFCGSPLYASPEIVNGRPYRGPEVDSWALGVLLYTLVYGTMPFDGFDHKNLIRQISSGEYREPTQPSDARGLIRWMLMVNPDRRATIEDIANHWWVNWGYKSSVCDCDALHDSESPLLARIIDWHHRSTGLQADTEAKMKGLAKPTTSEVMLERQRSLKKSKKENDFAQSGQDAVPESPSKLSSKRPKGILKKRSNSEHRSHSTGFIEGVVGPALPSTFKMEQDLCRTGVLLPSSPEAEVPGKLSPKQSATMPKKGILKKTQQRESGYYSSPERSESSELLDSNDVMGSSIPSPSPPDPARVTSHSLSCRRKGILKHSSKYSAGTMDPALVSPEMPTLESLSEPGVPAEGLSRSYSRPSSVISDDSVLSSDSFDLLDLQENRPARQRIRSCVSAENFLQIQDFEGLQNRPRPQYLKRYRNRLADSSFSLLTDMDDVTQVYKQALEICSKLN
The experiment in a line: Inhibition of full-length recombinant human His-tagged NUAK1 expressed in baculovirus expression system by Adapta assay.

Assay [2] has as its target T3, Tyrosine-protein kinase ZAP-70 (Homo sapiens, UniProt P43403).
T3 sequence (P43403 whole entry): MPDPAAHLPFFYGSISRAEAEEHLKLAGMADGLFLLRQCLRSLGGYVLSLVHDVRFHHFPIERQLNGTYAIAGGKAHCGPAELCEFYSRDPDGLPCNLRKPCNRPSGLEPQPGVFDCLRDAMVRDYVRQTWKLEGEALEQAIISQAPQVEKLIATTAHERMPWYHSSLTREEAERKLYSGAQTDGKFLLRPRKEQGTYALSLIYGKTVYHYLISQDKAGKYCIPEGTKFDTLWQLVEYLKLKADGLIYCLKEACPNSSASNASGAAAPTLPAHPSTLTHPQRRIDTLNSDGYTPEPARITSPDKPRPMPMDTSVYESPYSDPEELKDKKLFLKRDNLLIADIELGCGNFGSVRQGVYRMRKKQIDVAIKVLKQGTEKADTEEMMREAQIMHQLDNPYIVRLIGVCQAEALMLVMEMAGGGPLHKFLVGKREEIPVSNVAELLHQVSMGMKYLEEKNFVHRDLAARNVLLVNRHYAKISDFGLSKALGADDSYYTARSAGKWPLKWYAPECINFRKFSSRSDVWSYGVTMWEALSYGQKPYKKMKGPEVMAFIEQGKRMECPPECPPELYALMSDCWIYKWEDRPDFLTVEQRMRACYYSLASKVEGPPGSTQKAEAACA
As to the kind of experiment: Inhibition of full-length recombinant human His-tagged cytoplasmic ZAP70 expressed in baculovirus expression system by Z'-LYTE assay.

Take `Cn1cc(-c2cnc3c(-c4csc(C(=O)NCC(F)(F)F)c4)cnn3c2)cn1`: the IC50 on Ephrin type-B receptor 2 is 36 nM; in assay [1], 19 nM; in assay [2], above 100000 nM.

As to `Cc1sc(C(=O)N[C@@H]2[C@H](N)CCCC2(F)F)cc1-c1cnn2cc(Cl)cnc12`, the IC50 on Ephrin type-B receptor 2 is 3800 nM; in assay [1], 200 nM; in assay [2], above 100000 nM.

On to `O=C(NCC(F)(F)F)c1cc(-c2cnn3cc(-c4ccc(OCCN5CCCCC5)cc4)cnc23)cs1`, for which the IC50 is below 10 nM at Ephrin type-B receptor 2, 15 nM in assay [1] and above 100000 nM in assay [2].

Take `Cn1cc(-c2cnc3c(-c4csc(C(=O)N[C@@H]5CCCC[C@@H]5N)c4)cnn3c2)cn1` (racemic): the IC50 was 2.9 nM on Ephrin type-B receptor 2, 4.2 nM in assay [1] and above 10000 nM in assay [2].
